The source made the active and inactive calls. The rule behind the calls is not given here.
System: CCRIS mutagenicity, Ames/micronucleus/aberration tests
Assay: CCRIS mutagenicity studies
[1] = Test System: AMES SALMONELLA TYPHIMURIUM, Strain/Indicator: TA98, Metabolic Activation: NONE, Method: STANDARD PLATE
[2] = Test System: AMES SALMONELLA TYPHIMURIUM, Strain/Indicator: TA100, Metabolic Activation: NONE, Method: STANDARD PLATE
[3] = Test System: AMES SALMONELLA TYPHIMURIUM, Strain/Indicator: TA98, Metabolic Activation: NONE, Method: PREINCUBATION
[4] = Test System: AMES SALMONELLA TYPHIMURIUM, Strain/Indicator: TA100, Metabolic Activation: NONE, Method: PREINCUBATION

O=[N+]([O-])c1cccc2c1-c1cccc3c([N+](=O)[O-])ccc-2c13
mutagenic call (Test System: AMES SALMONELLA TYPHIMURIUM, Strain/Indicator: TA97, Metabolic Activation: NONE): active; positive | mutagenic call (Test System: AMES SALMONELLA TYPHIMURIUM, Strain/Indicator: TA98(1,8-DNP6), Metabolic Activation: NONE): active; positive | mutagenic call (Test System: AMES SALMONELLA TYPHIMURIUM, Strain/Indicator: TA98(NR), Metabolic Activation: NONE): active; positive | mutagenic call (Test System: AMES SALMONELLA TYPHIMURIUM, Strain/Indicator: TA98, Metabolic Activation: NONE): active; positive | mutagenic call (Test System: AMES SALMONELLA TYPHIMURIUM, Strain/Indicator: TA100, Metabolic Activation: NONE): active; positive | mutagenic call (Test System: AMES SALMONELLA TYPHIMURIUM, Strain/Indicator: TA1535, Metabolic Activation: NONE): inactive; negative | mutagenic call (Test System: AMES SALMONELLA TYPHIMURIUM, Strain/Indicator: TA1537, Metabolic Activation: NONE): active; positive | mutagenic call (Test System: AMES SALMONELLA TYPHIMURIUM, Strain/Indicator: TA1538, Metabolic Activation: NONE): active; positive | mutagenic call (Test System: AMES SALMONELLA TYPHIMURIUM, Strain/Indicator: TA1978, Metabolic Activation: NONE): active; positive

CC1(C2CO2)CO1 (stereo unspecified)
mutagenic call [1]: active; positive | mutagenic call [2]: active; positive

CC1=CC(=O)c2c(O)c3c(c(O)c2C1=O)C1C(O)C(C3=O)C23C(=O)c4c(O)c(C)cc(O)c4C(O)=C2C(=O)CC(O)C13 (stereo unspecified)
mutagenic call (Test System: UDS RODENT HEPATOCYTES, Strain/Indicator: THY INCORP, Metabolic Activation: NONE, Method: AUTORADIOGRAPHY): inactive; negative

CCCCCC/C=C/C=O
mutagenic call (End Point: IN VITRO CHROMOSOMAL ABERRATIONS, Test System: RAT HEPATOCYTES, Metabolic Activation: NONE): inactive; negative | mutagenic call (End Point: IN VITRO MICRONUCLEUS, Test System: RAT HEPATOCYTES, Metabolic Activation: NONE): inactive; negative | mutagenic call (Test System: CHINESE HAMSTER V-79, Strain/Indicator: V-79/6-THIOGUANINE, Metabolic Activation: NONE, Method: STANDARD PLATE): active; positive | mutagenic call (Test System: CHINESE HAMSTER V-79, Strain/Indicator: V-79/OUABAIN, Metabolic Activation: NONE, Method: STANDARD PLATE): inactive; negative

CCCCCCCCCCOC[N+](C)(C)CCCCCCCC
mutagenic call (Test System: BACILLUS SUBTILIS, Strain/Indicator: H17/REC, Metabolic Activation: NONE, Method: STANDARD PLATE): inactive; negative | mutagenic call (Test System: BACILLUS SUBTILIS, Strain/Indicator: M45, Metabolic Activation: NONE, Method: STANDARD PLATE): inactive; negative

ClCc1c2ccccc2cc2ccccc12
mutagenic call [3]: active; positive | mutagenic call (Test System: AMES SALMONELLA TYPHIMURIUM, Strain/Indicator: TA98, Metabolic Activation: RAT, LIVER, S-9, PCB, Method: PREINCUBATION): active; positive | mutagenic call [4]: active; positive | mutagenic call (Test System: AMES SALMONELLA TYPHIMURIUM, Strain/Indicator: TA100, Metabolic Activation: RAT, LIVER, S-9, PCB, Method: PREINCUBATION): active; positive

CNC[C@H](O)[C@@H](O)[C@H](O)[C@H](O)CO.CNC[C@H](O)[C@@H](O)[C@H](O)[C@H](O)CO.O=C([O-])CN(CCN(CC(=O)[O-])CC(=O)[O-])CCN(CC(=O)[O-])[C@H](COCc1ccccc1)C(=O)[O-].[Gd+3].[H+].[H+]
mutagenic call [1]: inactive; negative | mutagenic call (Test System: AMES SALMONELLA TYPHIMURIUM, Strain/Indicator: TA98, Metabolic Activation: RAT LIVER S-9, AROCLOR 1254 (10%), Method: STANDARD PLATE): inactive; negative | mutagenic call [2]: inactive; negative | mutagenic call (Test System: AMES SALMONELLA TYPHIMURIUM, Strain/Indicator: TA100, Metabolic Activation: RAT LIVER S-9, AROCLOR 1254 (10%), Method: STANDARD PLATE): inactive; negative | mutagenic call (Test System: AMES SALMONELLA TYPHIMURIUM, Strain/Indicator: TA1535, Metabolic Activation: NONE, Method: STANDARD PLATE): inactive; negative | mutagenic call (Test System: AMES SALMONELLA TYPHIMURIUM, Strain/Indicator: TA1535, Metabolic Activation: RAT LIVER S-9, AROCLOR 1254 (10%), Method: STANDARD PLATE): inactive; negative | mutagenic call (Test System: AMES SALMONELLA TYPHIMURIUM, Strain/Indicator: TA1537, Metabolic Activation: NONE, Method: STANDARD PLATE): inactive; negative | mutagenic call (Test System: AMES SALMONELLA TYPHIMURIUM, Strain/Indicator: TA1537, Metabolic Activation: RAT LIVER S-9, AROCLOR 1254 (10%), Method: STANDARD PLATE): inactive; negative | mutagenic call (Test System: AMES SALMONELLA TYPHIMURIUM, Strain/Indicator: TA1538, Metabolic Activation: NONE, Method: STANDARD PLATE): inactive; negative | mutagenic call (Test System: AMES SALMONELLA TYPHIMURIUM, Strain/Indicator: TA1538, Metabolic Activation: RAT LIVER S-9, AROCLOR 1254 (10%), Method: STANDARD PLATE): inactive; negative | mutagenic call (Test System: ESCHERICHIA COLI, Strain/Indicator: WP2 UVR A-, Metabolic Activation: NONE, Method: STANDARD PLATE): inactive; negative | mutagenic call (Test System: ESCHERICHIA COLI, Strain/Indicator: WP2 UVR A-, Metabolic Activation: RAT LIVER S-9, AROCLOR 1254 (10%), Method: STANDARD PLATE): inactive; negative

N#CN=C(N)N
mutagenic call (Test System: AMES SALMONELLA TYPHIMURIUM, Strain/Indicator: TA98, Metabolic Activation: MAIZE SEEDLING, S-14, Method: PREINCUBATION): active; positive | mutagenic call (Test System: AMES SALMONELLA TYPHIMURIUM, Strain/Indicator: TA98, Metabolic Activation: MOUSE, LIVER, S-9, Method: PREINCUBATION): inactive; negative | mutagenic call [3]: inactive; negative | mutagenic call (Test System: AMES SALMONELLA TYPHIMURIUM, Strain/Indicator: TA98, Metabolic Activation: RAT LIVER S-9, PHENOBARBITAL AND BETA-NAPHTHOFLAVONE, Method: PREINCUBATION): inactive; negative | mutagenic call (Test System: AMES SALMONELLA TYPHIMURIUM, Strain/Indicator: TA100, Metabolic Activation: MAIZE SEEDLING, S-14, Method: PREINCUBATION): inactive; negative | mutagenic call (Test System: AMES SALMONELLA TYPHIMURIUM, Strain/Indicator: TA100, Metabolic Activation: MOUSE, LIVER, S-9, Method: PREINCUBATION): inactive; negative | mutagenic call [4]: inactive; negative | mutagenic call (Test System: AMES SALMONELLA TYPHIMURIUM, Strain/Indicator: TA100, Metabolic Activation: RAT LIVER S-9, PHENOBARBITAL AND BETA-NAPHTHOFLAVONE, Method: PREINCUBATION): inactive; negative | mutagenic call (Test System: AMES SALMONELLA TYPHIMURIUM, Strain/Indicator: TA102, Metabolic Activation: NONE, Method: PREINCUBATION): inactive; negative | mutagenic call (Test System: AMES SALMONELLA TYPHIMURIUM, Strain/Indicator: TA102, Metabolic Activation: RAT LIVER S-9, PHENOBARBITAL AND BETA-NAPHTHOFLAVONE, Method: PREINCUBATION): inactive; negative | mutagenic call (Test System: AMES SALMONELLA TYPHIMURIUM, Strain/Indicator: TA104, Metabolic Activation: NONE, Method: PREINCUBATION): inactive; negative | mutagenic call (Test System: AMES SALMONELLA TYPHIMURIUM, Strain/Indicator: TA104, Metabolic Activation: RAT LIVER S-9, PHENOBARBITAL AND BETA-NAPHTHOFLAVONE, Method: PREINCUBATION): inactive; negative | mutagenic call (Test System: AMES SALMONELLA TYPHIMURIUM, Strain/Indicator: TA1535, Metabolic Activation: NONE, Method: PREINCUBATION): inactive; negative | mutagenic call (Test System: AMES SALMONELLA TYPHIMURIUM, Strain/Indicator: TA1535, Metabolic Activation: RAT LIVER S-9, PHENOBARBITAL AND BETA-NAPHTHOFLAVONE, Method: PREINCUBATION): inactive; negative | mutagenic call (Test System: AMES SALMONELLA TYPHIMURIUM, Strain/Indicator: TA1537, Metabolic Activation: NONE, Method: PREINCUBATION): inactive; negative | mutagenic call (Test System: AMES SALMONELLA TYPHIMURIUM, Strain/Indicator: TA1537, Metabolic Activation: RAT LIVER S-9, PHENOBARBITAL AND BETA-NAPHTHOFLAVONE, Method: PREINCUBATION): inactive; negative | mutagenic call (Test System: AMES SALMONELLA TYPHIMURIUM, Strain/Indicator: TA1538, Metabolic Activation: NONE, Method: PREINCUBATION): inactive; negative | mutagenic call (Test System: E.COLI, Strain/Indicator: WP2UVRA/PKM101, Metabolic Activation: NONE, Method: PREINCUBATION): inactive; negative | mutagenic call (Test System: E.COLI, Strain/Indicator: WP2UVRA/PKM101, Metabolic Activation: RAT LIVER S-9, PHENOBARBITAL AND BETA-NAPHTHOFLAVONE, Method: PREINCUBATION): inactive; negative | mutagenic call (Test System: E.COLI, Strain/Indicator: WP2UVRA, Metabolic Activation: NONE, Method: PREINCUBATION): inactive; negative | mutagenic call (Test System: E.COLI, Strain/Indicator: WP2UVRA, Metabolic Activation: RAT LIVER S-9, PHENOBARBITAL AND BETA-NAPHTHOFLAVONE, Method: PREINCUBATION): inactive; negative

O[C@@H]1[C@@H]2O[C@@H]2c2cc3c(ccc4ccccc43)cc2[C@H]1O
mutagenic call (Test System: CHINESE HAMSTER V-79, Strain/Indicator: V-79/8-AZAGUANINE, Metabolic Activation: NONE, Method: STANDARD PLATE): active; positive

Reference: PubChem BioAssay AID1259407 (Chemical Carcinogenesis Research Information System (CCRIS), 2018)
